Assay results published in patent publication US10087139B2, “3-Phenylisoserine derivative production method” (Toray Fine CHhemicals Co., Ltd., priority 2015, dated 2018).
Each block holds one compound with its values, some of them ahead of it.

Legend:
[1] = Solubility of N-protected-3-phenylisoserine in the extraction solvents; format: physicochemical; settings: solvent 1,2-dimethoxyethane
[2] = as above; format: physicochemical
Description: (§1) The same operation as in Example 1 was carried out except that toluene was used instead of tetrahydrofuran as the extraction solvent in the extraction step of Example 1. As a result, (2R,3S)—N-benzoyl-3-phenylisoserine as an intermediate could be hardly extracted into the organic layer. To evaluate the performance of the extraction solvent, solubility of (2R,3S)—N-benzoyl-3-phenylisoserine was investigated for comparison.
as §1, with “cyclopentyl methyl ether” for “toluene”
as §1, with “methyl-tert-butyl ether” for “toluene”
as §1, with “acetonitrile” for “toluene”

[3] = solvent cyclopentyl methyl ether
[4] = solvent methyl-tert-butyl ether

Solubility (20° C.) ([1]; 20° C.): 12.7 wt %
Solubility (40° C.) ([1]; 40° C.): 13.6 wt %
Solubility (20° C.) ([2]; solvent acetonitrile): 2.2 wt %
Solubility (40° C.) ([2]; solvent acetonitrile): 2.9 wt %
Solubility (20° C.) [2, 3]: 0.4 wt %
Solubility (40° C.) [2, 3]: 0.4 wt %
Solubility (20° C.) [2, 4]: 0.2 wt %
Solubility (40° C.) [2, 4]: 0.4 wt %
Solubility (20° C.) ([2]; solvent tetrahydrofuran): 9.2 wt %
Solubility (40° C.) ([2]; solvent tetrahydrofuran): 11.6 wt %
Solubility (20° C.) ([2]; solvent toluene): <0.1 wt %
Solubility (40° C.) ([2]; solvent toluene): <0.1 wt %
SMILES: O=C(N[C@@H](c1ccccc1)[C@@H](O)C(=O)O)c1ccccc1 [(2R,3S)—N-benzoyl-3-phenylisoserine]

melting point: 183 to 185 °C
SMILES: COC(=O)[C@H](O)[C@@H](NC(=O)c1ccccc1)c1ccccc1 [Example 1, (2R,3S)—N-benzoyl-3-phenylisoserine methyl ester]

SMILES: COC(=O)[C@H](O)[C@@H](NC(=O)OC(C)(C)C)c1ccccc1 [Example 2, (2R,3S)—N-tert-butoxycarbonyl-3-phenylisoserine methyl ester]
melting point: 131 to 133 °C

SMILES: CC(C)(C)OC(=O)NC(c1ccccc1)C(O)C(=O)O (stereo not shown) [N-tert-butoxycarbonyl-3-phenylisoserine]
Solubility (20° C.) ([2]; solvent tetrahydrofuran): 10.1 wt %
Solubility (40° C.) ([2]; solvent tetrahydrofuran): 12.2 wt %
